Measured values taken from PMC3288161 (Accounts of Chemical Research, 2011).

Experiments:
PtlI (SAV_2999) = PtlI (SAV_2999) (Streptomyces avermitilis, UniProt Q82IY3); conditions: oxidation to pentalenal
[1] = molecular target: T1, PtlA (SAV_2998), pentalenene synthase (Streptomyces avermitilis, UniProt Q82IY4); assay: incubation with recombinant enzyme, product identification; type: biochemical
T1 sequence (Q82IY4 1-336): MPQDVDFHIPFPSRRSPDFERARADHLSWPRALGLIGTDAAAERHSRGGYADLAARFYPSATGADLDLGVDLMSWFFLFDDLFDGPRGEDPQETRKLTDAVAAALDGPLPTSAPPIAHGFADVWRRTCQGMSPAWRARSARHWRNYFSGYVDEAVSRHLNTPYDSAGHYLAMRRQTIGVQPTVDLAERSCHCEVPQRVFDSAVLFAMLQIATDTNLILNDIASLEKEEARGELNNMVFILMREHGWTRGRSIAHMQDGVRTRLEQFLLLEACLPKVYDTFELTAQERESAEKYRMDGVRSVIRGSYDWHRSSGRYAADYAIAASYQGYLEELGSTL

[2] = molecular target: T2, avermitilol synthase (SAV_76) (Streptomyces avermitilis, UniProt Q82RR7); assay: incubation with purified recombinant enzyme, product identification; type: biochemical; conditions: main product avermitilol
T2 sequence (Q82RR7 1-335): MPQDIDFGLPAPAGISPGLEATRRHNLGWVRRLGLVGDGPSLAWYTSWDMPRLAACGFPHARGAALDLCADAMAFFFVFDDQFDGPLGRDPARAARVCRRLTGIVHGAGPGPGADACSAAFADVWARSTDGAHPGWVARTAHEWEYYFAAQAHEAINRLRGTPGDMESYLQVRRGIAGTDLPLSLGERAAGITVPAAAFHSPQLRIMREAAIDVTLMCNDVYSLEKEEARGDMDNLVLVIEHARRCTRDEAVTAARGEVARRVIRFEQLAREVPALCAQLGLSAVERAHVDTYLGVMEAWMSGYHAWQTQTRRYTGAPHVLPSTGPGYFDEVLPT

[3] = molecular target: T3, epi-isozizaene synthase (SCO5222) (Streptomyces coelicolor, UniProt Q9K499); assay: incubation with recombinant enzyme, product identification; type: biochemical
T3 sequence (Q9K499 1-361): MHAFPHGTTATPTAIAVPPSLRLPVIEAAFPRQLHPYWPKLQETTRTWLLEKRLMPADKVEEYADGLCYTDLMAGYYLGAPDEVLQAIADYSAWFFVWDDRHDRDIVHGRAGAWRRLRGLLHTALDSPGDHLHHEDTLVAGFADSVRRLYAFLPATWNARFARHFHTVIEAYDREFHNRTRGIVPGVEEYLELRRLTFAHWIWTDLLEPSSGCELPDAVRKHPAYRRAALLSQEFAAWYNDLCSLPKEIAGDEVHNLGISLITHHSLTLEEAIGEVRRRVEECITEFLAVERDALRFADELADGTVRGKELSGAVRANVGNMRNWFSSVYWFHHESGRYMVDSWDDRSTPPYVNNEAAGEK

[4] = molecular target: T4, SCO7701 (C-methyltransferase) (Streptomyces coelicolor, UniProt Q9F1Y5); assay: as above; type: biochemical
T4 sequence (Q9F1Y5 1-292): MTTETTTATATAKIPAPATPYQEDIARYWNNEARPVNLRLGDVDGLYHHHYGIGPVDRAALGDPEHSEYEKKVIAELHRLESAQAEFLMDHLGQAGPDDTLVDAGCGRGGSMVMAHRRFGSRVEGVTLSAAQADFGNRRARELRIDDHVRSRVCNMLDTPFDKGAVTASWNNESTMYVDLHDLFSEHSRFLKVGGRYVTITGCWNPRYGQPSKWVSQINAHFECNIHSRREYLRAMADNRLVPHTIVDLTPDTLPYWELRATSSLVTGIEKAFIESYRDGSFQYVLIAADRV

SMILES: CC1=C[C@@H]2CC(C)(C)C[C@@]23[C@H](C)CC[C@@H]13 [compound 6, pentalenene]
- expressed enzyme, product identification (PtlI (SAV_2999)): cytochrome P450 catalyzing the 3-step oxidation of pentalenene to pentalenal

SMILES: CC(C)=CCC/C(C)=C/CC/C(C)=C/COP(=O)(O)OP(=O)(O)O [compound 4, farnesyl diphosphate]
- incubation with recombinant enzyme, product identification [1]: Incubation of recombinant PtlA with FPP gave pentalenene
- incubation with purified recombinant enzyme, product identification [2]: Incubation of the purified recombinant SAV76 protein with FPP gave a mixture
- incubation with recombinant enzyme, product identification [3]: Incubation of the recombinant protein with FPP gave as the major product

SMILES: C[S+](CC[C@H](N)C(=O)O)C[C@H]1O[C@@H](n2cnc3c(N)ncnc32)[C@H](O)[C@@H]1O (stereo partly drawn) [S-adenosyl-L-methionine]
- incubation with recombinant enzyme, product identification ([4]; co-substrate GPP, methyl donor): Incubation of GPP and SAM with recombinant SCO7701 gave exclusively

SMILES: CC(C)=CCC/C(C)=C/COP(=O)(O)OP(=O)(O)O [compound 3, geranyl diphosphate]
- incubation with recombinant enzyme, product identification ([4]; co-substrate SAM, product 2-MeGPP): Incubation of GPP and SAM with recombinant SCO7701 gave exclusively
